Legend:
[1] = target: T1, ADP P2Y12 receptor (Homo sapiens, UniProt Q9H244); assay: FLIPR calcium assay transducing Gi-coupled signaling to the Gq pathway (inhibition of ADP-induced calcium mobilization); assay type: cell-based; settings: HEK 293 cells co-transfected with P2Y12 and Gqi5, ADP at EC60-70 dose
T1 construct: expressed in transfected cells
Text: A FLIPR Calcium Assay Transducing Gi-Coupled Signaling to the Gq Pathway
The ADP P2Y12 subtype is a Gi coupled GPCR, which mediates inhibition of adenylate cyclase leading to decreased cAMP while Gq proteins primarily activate phospholipase C, which stimulates inositol-1,4,5-triphosphate (IP3) formation and a subsequent increase in intracellular Ca^2+ concentration, which can be easily measured by FLIPR. Prior to the development of a method to convert a Gi coupled GPCR signaling to a Gq coupled GPCR signaling, a significant barrier existed for the functional testing and screening of Gi coupled GPCRs. One popular method, GTPγS migration, is slow, produces a small signal and generates radioactive waste. The discovery that a small switch in the amino acid sequence in the Gi protein could convert it to a protein mediating a Gq coupled response has led to the development of robust, high throughput assays for this valuable receptor subtype.
The FLIPR-based HTS assay transducing the Gi signaling to the Gq pathway is described below.
pcDNA3hygroP2Y12 containing a hygromycin resistance gene and pLEC1-Gqi5-HA containing a neomycin resistance gene (licensed from Molecular Devices, Sunnyvale, Calif.) were co-transfected into Human embryonic kidney (HEK) 293 cells with SuperFect (Qiagen, Valencia, Calif.). Cell clones were selected in the presence of 600 μg/ml hygromycin B (Life Technologies, Carlsbad, Calif.) and 1 mg/ml of G418 (Mediatech, Herndon, Va.). Drug resistant colonies were picked and screened by FLIPR and the gene expression was further confirmed by RT-PCR. Positive clones were maintained in growth medium (DMEM supplemented with 10% FBS, 1× p/s) containing 400 μg/ml of G418 and 200 μg/ml of hygromycin.
The day before the assay, cells are seeded in clear, flat-bottom black-wall, tissue culture treated polystyrene 96- or 384-well plates and incubated at 37° C., 5% CO2. 50 μl of complete dye loading solution (FLIPR Calcium Assay Kit, Molecular Devices) was added to each well containing 100 μl of culture media. The cells were incubated for at least 30 min at 37° C., in 5% CO2 before initiating the assay on the FLIPR. The agonist effect of ADP was tested and EC50 was determined prior to compound testing. The EC60-70 dose was used.
The antagonist compounds were prepared at 4× and the agonists were diluted at 5× the concentration desired in the test wells, and then aliquoted into the sample plates. The sample plates and the cell plate were placed in the FLIPR assay chamber. A first addition (50 μl) was made at the start of reading and a second addition (50 μl) was made after 5 min of reading. Raw fluorescence data was exported for each well and tabulated versus time within an ASCII file. Data was then imported into Excel and the peak response over the basal level was determined. The percent inhibition for each compound was calculated by the change in fluorescent density as a % inhibition of the control ADP response to obtain an IC50, as shown in Table 1 (wherein N/A means Not Applicable).

[2] = target: T2, P2Y12 receptor (Homo sapiens, UniProt Q9H244); assay: Whole cell receptor binding assay, 2-MeS[3H]-ADP; settings: HEK 293 cells stably transfected with P2Y12; 2-MeS[3H]-ADP 3 nM; 30 min at 37° C.; read-out: Inhibition of Receptor Binding (IC50 μM)
T2 construct: expressed in transfected cells
T2 sequence (Q9H244 whole entry): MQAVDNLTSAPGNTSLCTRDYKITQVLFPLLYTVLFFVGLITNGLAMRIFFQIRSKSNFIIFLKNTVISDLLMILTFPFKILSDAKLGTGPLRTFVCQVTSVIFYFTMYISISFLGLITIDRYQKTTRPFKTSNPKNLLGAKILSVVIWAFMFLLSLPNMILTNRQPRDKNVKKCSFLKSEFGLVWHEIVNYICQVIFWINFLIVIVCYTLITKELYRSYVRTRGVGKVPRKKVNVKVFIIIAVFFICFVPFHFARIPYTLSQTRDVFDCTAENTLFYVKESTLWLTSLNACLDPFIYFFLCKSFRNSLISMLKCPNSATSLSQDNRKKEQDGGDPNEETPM
Experimental: A whole cell-binding assay for 2-MeS [^3H]-ADP (Custom synthesized by Amersham BioScience, Piscataway, N.J.) to the P2Y12 receptor was performed.
A P2Y12 cDNA containing hygromycin resistant gene was transfected in HEK 293 cells. A stable cell line was obtained by a cloning selection method. The cells were cultured in DMEM supplemented with 10% FBS and 1× of p/s.
On the day of the assay, the cells were harvested and resuspended in 0.25% BSA-DMEM and adjusted to a cell concentration of 1.6×10^6/ml. 15 μl of each compound was mixed with 120 μl of cell suspension in 96 well assay plates and incubated for 5 min prior to the addition of the radio-labeled ligand 2-MeS[^3H]-ADP (3 nM final in 0.25% BSA-DMEM) or unlabeled […] (for non-specific binding). The reaction was then incubated for 30 min at 37° C. and stopped by adding cold DMEM. The labeled and unlabeled cells were separated by a filtration method using a Packard Filtermate 196 on to the unfilter-96 GF/B plate. The plates were dyed in a 37° C. oven for 1-2 hours and 50 μl of MicroScint-20 (PerkinElmer) was added to each well. The radioactivity was measured using a TOPCOUNT beta counter (Packard). The percent inhibition for each compound was calculated by the change in radioactivity as a % inhibition of the control to obtain an IC50, as shown in Table 2.

[3] = system: platelets; assay: In vitro platelet aggregation (ADP-induced, washed platelets); assay type: cell-based; settings: Homo sapiens, washed platelets from healthy volunteers, agonist giving 60-70% aggregation, % inhibition of control ADP response
Experimental: Platelet aggregation studies were performed according to a published method (Bednar, B., Condra, C., Gould, R. J., and Connolly, T. M., Throm. Res., 77:453-463 (1995). Platelet-rich plasma (PRP) concentrates prepared from healthy volunteers who were aspirin free for at least 7 days by venipuncture using ACD-A as anticoagulant was purchased from Biological Specialties, Inc. (Colmar, Pa.). PRP was centrifuged at 730 g for 15 min. The platelet pellet was washed twice in CGS buffer (13 mM sodium citrate, 30 mM glucose, 120 mM NaCl, pH 6.5) containing 1 μ/ml apyrase (grade V, Sigma-Aldrich, St. Louis, Mo.), 1 mM EGTA, and resuspended in Tyrode's buffer (140 mM NaCl, 2.7 mM KCl, 12 mM NaHCO3, 0.76 mM Na2HPO4, 5.5 mM dextrose, 5.0 mM Hepes, 0.2% BSA, pH 7.4). The platelets were diluted to 3×10^8 platelets/ml and kept >45 min at 37° C. before use. 105 μl of washed platelets, 2 mM CaCl2 and […] of fibrinogen were added to a 96-well microliter plate.
Platelet aggregation was initiated by the addition of serial concentrations of ADP (BioData Corp. Horsham, Pa.). Buffer was added to one set of control wells. The assay plate was stirred constantly and intermittently placed in a microplate reader (Softmax, Molecular Devices, Menlo Park, Calif.) to read optical density (650 nm) at 0 and 5 minutes after the addition of the compound solutions. Aggregation was calculated as the decrease in optical density between the time 0- and 5-min measurements and expressed as % of aggregation. For the inhibition assay, platelet aggregation was conducted as described above except for compound additions. Test compounds were prepared in 100% DMSO and stored.
On the day of the assay, test compounds were diluted in the buffer containing 3% of DMSO as a 10× working solution. 15 μl of compound solutions were added to 105 μl of platelets 5 min prior to the addition of CaCl2 and fibrinogen.

T1 sequence (Q9H244 whole entry): as above

IC50 [1]	IC50 [2]	Structure (SMILES)	IC50 [3]
10.4 µM	3.74 µM	CCCSc1nc(NCCc2cccs2)c2nnn([C@@H]3C[C@H](c4nnc(C)[nH]4)[C@@H](O)[C@H]3O)c2n1 [Cpd 15, (1S,2R,3R,5R)-3-(5-methyl-4H-[1,2,4]triazol-3-yl)-5-[5-propylsulfanyl-7-(2-thiophen-2-yl-ethylamino)-[1,2,3]triazolo[4,5-d]pyrimidin-3-yl]-cyclopentane-1,2-diol]	6.47 µM
> 30 µM	3.88 µM	CCCSc1nc(NC[C@@H](C)c2ccccc2)c2nnn([C@@H]3C[C@H](c4nnc(C)[nH]4)[C@@H](O)[C@H]3O)c2n1 [Cpd 16, (1S,2R,3R,5R)-3-(5-methyl-4H-[1,2,4]triazol-3-yl)-5-{7-[(2S)-2-phenylpropylamino]-5-propylsulfanyl-[1,2,3]triazolo[4,5-d]pyrimidin-3-yl}-cyclopentane-1,2-diol]	> 30 µM
0.024 µM	0.002 µM	CCCSc1nc(N[C@@H]2C[C@H]2c2ccccc2)c2nnn([C@@H]3C[C@H](c4nnn[nH]4)[C@@H](O)[C@H]3O)c2n1 [Cpd 22, (1R,2S,3R,5R)-3-{7-[(1R,2S)-2-phenyl-cyclopropylamino]-5-propylsulfanyl-[1,2,3]triazolo[4,5-d]pyrimidin-3-yl}-5-(1H-tetrazol-5-yl)-cyclopentane-1,2-diol]	0.002 µM
0.765 µM	0.422 µM	CCCCNc1nc(SCCC)nc2c1nnn2[C@@H]1C[C@H](c2nnc[nH]2)[C@@H](O)[C@H]1O [Cpd 20, (1R,2S,3R,5R)-3-(7-butylamino-5-propylsulfanyl-[1,2,3]triazolo[4,5-d]pyrimidin-3-yl)-5-(4H-[1,2,4]triazol-3-yl)-cyclopentane-1,2-diol]	0.198 µM

More lines, now with the values behind:

Structure (SMILES)	IC50 [1]	IC50 [2]	IC50 [3]
CCCSc1nc(NCC(F)(F)F)c2nnn([C@@H]3C[C@H](c4nnn[nH]4)[C@@H](O)[C@H]3O)c2n1 [Cpd 8, (1R,2S,3R,5R)-3-[5-propylsulfanyl-7-(2,2,2-trifluoro-ethylamino)-[1,2,3]triazolo[4,5-d]pyrimidin-3-yl]-5-(1H-tetrazol-5-yl)-cyclopentane-1,2-diol]	3.12 µM	0.665 µM	1.21 µM
CCCSc1nc(NCCc2ccccc2)c2nnn([C@@H]3C[C@H](c4nnn[nH]4)[C@@H](O)[C@H]3O)c2n1 [Cpd 12, (1R,2S,3R,5R)-3-(7-phenethylamino-5-propylsulfanyl-[1,2,3]triazolo[4,5-d]pyrimidin-3-yl)-5-(1H-tetrazol-5-yl)-cyclopentane-1,2-diol]	0.416 µM	0.73 µM	0.292 µM
CCCSc1nc(N[C@@H]2C[C@H]2c2ccccc2)c2nnn([C@@H]3C[C@H](Cn4ncnn4)[C@@H](O)[C@H]3O)c2n1 (mixture of isomers) [Cpd 3, (1R,2S,3R,5R)-3-{7-[(1RS,2SR)-2-phenyl-cyclopropylamino]-5-propylsulfanyl-[1,2,3]triazolo[4,5-d]pyrimidin-3-yl}-5-tetrazol-2-ylmethyl-cyclopentane-1,2-diol]	0.595 µM	0.148 µM	1.24 µM
CCCSc1nc(N[C@@H]2C[C@H]2c2ccccc2)c2nnn([C@@H]3C[C@H](Cn4ccnn4)[C@@H](O)[C@H]3O)c2n1 (mixture of isomers) [Cpd 7, (1R,2S,3R,5R)-3-{7-[(1RS,2SR)-2-phenyl-cyclopropylamino]-5-propylsulfanyl-[1,2,3]triazolo[4,5-d]pyrimidin-3-yl}-5-[1,2,3]triazol-1-ylmethyl-cyclopentane-1,2-diol]	0.507 µM	0.134 µM	0.333 µM
CCCSc1nc(N[C@@H]2C[C@H]2c2ccccc2)c2nnn([C@@H]3C[C@H](Cn4ccnc4)[C@@H](O)[C@H]3O)c2n1 (mixture of isomers) [Cpd 5, (1S,2R,3R,5R)-3-imidazol-1-ylmethyl-5-{7-[(1RS,2SR)-2-phenyl-cyclopropylamino]-5-propylsulfanyl-[1,2,3]triazolo[4,5-d]pyrimidin-3-yl}-cyclopentane-1,2-diol]	0.805 µM	0.26 µM	0.529 µM

— patent US7566722B2, “Triazolopyrimidine derivatives as ADP P2Y12 receptor antagonists” (Janssen Pharmaceutica, N.V., priority 2006, dated 2009)
